As a reminder, the IC50 is the concentration at which inhibition is half-maximal.

The structures appear in SMILES notation.

The subject of the first experiment is MCF7:5C (Tamoxifen Resistant) cells. As to the kind of experiment: Cell viability of MCF7:5C (tamoxifen resistant), DNA content growth inhibition. The class given is cell-based. The note with it: 144 h, Table 1, data normalized to 1 uM fulvestrant, day 6, read-out: MCF-5C growth inhibition IC50. The procedure:
Assays Cell Viability of MCF7:5C (Tamoxifen Resistant)
The DNA content of the cells was determined as previously described using a Fluorescent DNA Quantitation kit (cat. No. 170-2480; Bio-Rad Laboratories, Hercules, Calif.). Briefly, five thousand cells were plated per well in 96-well plates, and treatment with indicated concentrations of compounds was started at the same time in each well. On day 6, the cells in the plates were lysed and frozen at −80° C. To measure the total DNA in each well, the plates were allowed to warm to room temperature, incubated with Hoechst dye, and mixed well. The fluorescence was measured using a Synergy H4 Hybrid Multi-Mode Microplate Reader. For each analysis, six replicate wells were used and at least three independent experiments were performed.
FIG. 1 is a graph of the efficacy of Compound 1 against tamoxifen-resistant MCF-7:5 cells normalized to 1 uM fulvestrant. The y-axis is cell survival as a percent of the control and the x-axis is the concentration of the compound measured in nanomolar units.
On to `Cc1cc(F)ccc1C(=O)c1sc2cc(O)ccc2c1-c1ccc(/C=C/C(=O)O)cc1` [Compound 9, (E)-3-(4-(2-(4-fluoro-2-methylbenzoyl)-6-hydroxybenzo[b]thiophen-3-yl)phenyl)acrylic acid], for which the IC50 was > 200 nM.

Turning to `Cc1cccc(C)c1C(=O)c1sc2cc(O)ccc2c1-c1ccc(/C=C/C(=O)O)cc1` [Compound 10, (E)-3-(4-(2-(2,6-dimethylbenzoyl)-6-hydroxybenzo[b]thiophen-3-yl)phenyl)acrylic acid], the IC50 is > 200 nM. Still for that read-out and setting: the value for `Cc1ccc(F)cc1C(=O)c1sc2cc(O)ccc2c1-c1ccc(/C=C/C(=O)O)cc1` [Compound 7, (E)-3-(4-(2-(5-fluoro-2-methylbenzoyl)-6-hydroxybenzo[b]thiophen-3-yl)phenyl)acrylic acid] was > 200 nM; that for `Cc1cc(F)cc(C)c1C(=O)c1sc2cc(O)ccc2c1-c1ccc(/C=C/C(=O)O)cc1` [Compound 8, (E)-3-(4-(2-(4-fluoro-2,6-dimethylbenzoyl)-6-hydroxybenzo[b]thiophen-3-yl)phenyl)acrylic acid] was > 200 nM. On the same count and under the same terms, the value for `Cc1ccccc1C(=O)c1sc2cc(O)ccc2c1-c1ccc(/C=C/C(=O)O)cc1` [Compound 6, (E)-3-(4-(6-hydroxy-2-(2-methylbenzoyl)benzo[b]thiophen-3-yl)phenyl)acrylic acid] was > 200 nM. With `O=C(O)/C=C/c1ccc(-c2c(C(=O)c3ccccc3Cl)sc3cc(O)ccc23)cc1` [Compound 4, (E)-3-(4-(2-(2-chlorobenzoyl)-6-hydroxybenzo[b]thiophen-3-yl)phenyl)acrylic acid], the IC50 was > 200 nM. With `O=C(O)/C=C/c1ccc(-c2c(C(=O)c3ccccc3F)sc3cc(O)ccc23)cc1` [Compound 3, (E)-3-(4-(2-(2-fluorobenzoyl)-6-hydroxybenzo[b]thiophen-3-yl)phenyl)acrylic acid], the concentration for half-maximal inhibition (IC50) is > 200 nM. Same read-out and setting: the value for `O=C(O)/C=C/c1ccc(-c2c(C(=O)c3ccccc3C(F)(F)F)sc3cc(O)ccc23)cc1` [Compound 5, (E)-3-(4-(6-hydroxy-2-(2-(trifluoromethyl)benzoyl)benzo[b]thiophen-3-yl)phenyl)acrylic acid] was > 200 nM. Still for that read-out and setting: under `Cc1cc(C)cc(C(=O)c2sc3cc(O)ccc3c2-c2ccc(/C=C/C(=O)O)cc2)c1` [Compound 11, (E)-3-(4-(2-(3,5-dimethylbenzoyl)-6-hydroxybenzo[b]thiophen-3-yl)phenyl)acrylic acid] stands > 200 nM.

In the case of `O=C(O)/C=C/c1ccc(-c2c(C(=O)c3ccc(O)cc3)sc3cc(O)ccc23)cc1` [Compound 1, (E)-3-(4-(6-hydroxy-2-(4-hydroxybenzoyl)benzo[b]thiophen-3-yl)phenyl)acrylic acid], the 50% inhibitory concentration (IC50) was < 100 nM. The same measure, in the same setting: the value for `O=C(O)/C=C/Oc1ccc(-c2c(C(=O)c3ccc(O)cc3)sc3cc(O)ccc23)cc1` [Compound 2, (E)-3-(4-(6-hydroxy-2-(4-hydroxybenzoyl)benzo[b]thiophen-3-yl)phenoxy)acrylic acid] was < 10 nM.

Staying with this experiment, now noted: 144 h, Table 2, data normalized to 1 uM fulvestrant, day 6, read-out: MCF-5C growth inhibition IC50.
Turning to `Cc1cc(O)ccc1C(=O)c1sc2cc(O)ccc2c1-c1ccc(/C=C/C(=O)O)cc1` [Compound 14, (E)-3-(4-(6-hydroxy-2-(4-hydroxy-2-methylbenzoyl)benzo[b]thiophen-3-yl)phenyl)acrylic acid], the IC50 was > 200 nM. Take `Cc1cc(O)cc(C)c1C(=O)c1sc2cc(O)ccc2c1-c1ccc(/C=C/C(=O)O)cc1` [Compound 15, (E)-3-(4-(6-hydroxy-2-(4-hydroxy-2,6-dimethylbenzoyl)benzo[b]thiophen-3-yl)phenyl)acrylic acid]: the IC50 was > 200 nM. Same read-out and setting: the value for `Cc1cc(OC(F)(F)F)ccc1C(=O)c1sc2cc(O)ccc2c1-c1ccc(/C=C/C(=O)O)cc1` [Compound 13, (E)-3-(4-(6-hydroxy-2-(2-methyl-4-(trifluoromethoxy)benzoyl)benzo[b]thiophen-3-yl)phenyl)acrylic acid] was > 200 nM; that for `O=C(O)/C=C/c1ccc(-c2c(C(=O)C3CCCCC3)sc3cc(O)ccc23)cc1` [Compound 12, (E)-3-(4-(2-(cyclohexanecarbonyl)-6-hydroxybenzo[b]thiophen-3-yl)phenyl)acrylic acid] was < 200 nM.

For a further experiment, the target named is T1, estrogen receptor (Homo sapiens, UniProt P03372).
T1 sequence (P03372 1-595): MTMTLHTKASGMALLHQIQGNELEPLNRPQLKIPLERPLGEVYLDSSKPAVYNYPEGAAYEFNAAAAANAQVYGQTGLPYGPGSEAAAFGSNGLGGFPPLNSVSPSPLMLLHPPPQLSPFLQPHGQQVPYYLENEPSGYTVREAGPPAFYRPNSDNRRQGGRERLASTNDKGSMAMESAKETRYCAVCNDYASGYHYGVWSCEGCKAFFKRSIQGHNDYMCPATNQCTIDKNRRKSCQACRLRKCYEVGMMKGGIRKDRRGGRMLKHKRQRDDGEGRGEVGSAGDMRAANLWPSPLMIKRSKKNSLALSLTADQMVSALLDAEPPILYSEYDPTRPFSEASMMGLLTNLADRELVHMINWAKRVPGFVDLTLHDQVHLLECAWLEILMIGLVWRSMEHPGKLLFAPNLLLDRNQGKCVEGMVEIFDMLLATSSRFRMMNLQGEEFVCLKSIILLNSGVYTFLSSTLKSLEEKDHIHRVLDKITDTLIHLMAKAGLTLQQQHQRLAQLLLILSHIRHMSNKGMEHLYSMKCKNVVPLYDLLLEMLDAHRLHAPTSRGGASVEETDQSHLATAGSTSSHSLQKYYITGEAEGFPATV
Kind of experiment: Western blot, estrogen receptor downregulation in MCF-7:5C cells. Format: cell-based. Also noted: Whole-cell extracts of cultured cells were prepared in lysis buffer; endogenous in cells. The note with it: 24 hours, 1 nM to 1 uM. The procedure: (§1) Whole-cell extracts of cultured cells were prepared in lysis buffer (200 mmol/L Tris, 1% Triton X-100, 5 mmol/L EDTA) with protease and phosphatase inhibitor cocktails (1:50, both from Sigma-Aldrich) after scraping from the culture plates. Protein concentration was measured using the Bradford method (Bio-Rad). Proteins were separated under denaturing conditions and blotted onto nitrocellulose membrane (Bio-Rad) using a wet transfer system (Bio-Rad). Images of blots were acquired on a Bio-Rad ChemiDoc System following incubation with SuperSignal West Dura luminol solution (Thermo Fisher Scientific).
(§2) Fulvestrant at 1 uM concentration was assayed as a positive control.
Consider `O=C(O)/C=C/c1ccc(-c2c(C(=O)c3ccc(O)cc3)sc3cc(O)ccc23)cc1` [Compound 1, (E)-3-(4-(6-hydroxy-2-(4-hydroxybenzoyl)benzo[b]thiophen-3-yl)phenyl)acrylic acid], for which the “estrogen receptor downregulation (western blot)” value is listed as “estrogen receptor downregulation”.

For a further experiment, the target named is T1, estrogen receptor. Kind of experiment: Western blot, estrogen receptor downregulation in T47D:neo cells. The class given is cell-based. The note with it: 24 hours, 1 nM to 1 uM. Further details: Whole-cell extracts of cultured cells were prepared in lysis buffer; endogenous in cells; host or cells: T47D:neo. The method, then:
as §1, §2
With `O=C(O)/C=C/c1ccc(-c2c(C(=O)c3ccc(O)cc3)sc3cc(O)ccc23)cc1` [Compound 1, (E)-3-(4-(6-hydroxy-2-(4-hydroxybenzoyl)benzo[b]thiophen-3-yl)phenyl)acrylic acid], the “estrogen receptor downregulation (western blot)” value was “estrogen receptor downregulation”.

The record behind these values is patent publication US10703747B2, “Benzothiophene-based selective mixed estrogen receptor downregulators” (The Board of Trustees of the University of Illnois, priority 2016, dated 2020).
